Data published in ChEMBL document CHEMBL2040791, “Synthesis of novel 6-(4-substituted piperazine-1-yl)-9-(β-D-ribofuranosyl)purine derivatives, which lead to senescence-induced cell death in liver cancer cells” (J Med Chem, 2012).
The source made the active and inactive calls. The rule behind the calls is not given here.

Assays:
Huh-7 [1] = test: Cytotoxicity against human HuH7 cells after 72 hrs by SRB assay; type: functional, cell-based
HepG2 [2] = test: Cytotoxicity against human HepG2 cells after 72 hrs by SRB assay; type: functional, cell-based
HCT-116 = test: Cytotoxicity against human HCT116 cells after 72 hrs by SRB assay; type: functional, cell-based
MCF7 = test: Cytotoxicity against human MCF7 cells after 72 hrs by SRB assay; type: functional, cell-based
[3] = Cytotoxicity against human Mahlavu cells after 72 hrs by SRB assay; type: functional, cell-based
[4] = Cytotoxicity against human FOCUS cells after 72 hrs by SRB assay; type: functional, cell-based
Huh-7 [5] = test: Inhibition of protein kinase in human HuH7 cells assessed as increase in ATP level after 72 hrs by Kinase-Glo assay; type: cell-based
Huh-7 [6] = test: Induction of apoptosis in human HuH7 cells assessed as PARP cleavage into 89 kDa and 24 kDa fragments at 7.8 uM after 72 hrs by Western blot analysis; type: functional, cell-based
HepG2 [7] = test: Induction of apoptosis in human HepG2 cells assessed as PARP cleavage into 89 kDa and 24 kDa fragments at 5.7 uM after 72 hrs by Western blot analysis; type: functional, cell-based
Mahlavu [8] = test: Induction of apoptosis in human Mahlavu cells assessed as PARP cleavage into 89 kDa and 24 kDa fragments at 9.2 uM after 72 hrs by Western blot analysis; type: functional, cell-based
FOCUS [9] = test: Induction of apoptosis in human FOCUS cells assessed as PARP cleavage into 89 kDa and 24 kDa fragments at 5.2 uM after 72 hrs by Western blot analysis; type: functional, cell-based
Huh-7 [10] = test: Induction of necrosis in human HuH7 cells assessed as PARP cleavage into 50 kDa fragment at 7.8 uM after 72 hrs by Western blot analysis; type: functional, cell-based
HepG2 [11] = test: Induction of necrosis in human HepG2 cells assessed as PARP cleavage into 50 kDa fragment into at 5.7 uM after 72 hrs by Western blot analysis; type: functional, cell-based
Mahlavu [12] = test: Induction of necrosis in human Mahlavu cells assessed as PARP cleavage into 50 kDa fragment at 9.2 uM after 72 hrs by Western blot analysis; type: functional, cell-based
FOCUS [13] = test: Induction of necrosis in human FOCUS cells assessed as PARP cleavage into 50 kDa fragment at 5.2 uM after 72 hrs by Western blot analysis; type: functional, cell-based
Huh-7 [14] = test: Induction of senescence in human HuH7 cells assessed as increase in senescence associated beta-galactosidase activity at cytotoxic IC50 to IC100 concentration after 3 to 6 days by X-GAL based staining method; type: functional, cell-based
Huh-7 [15] = test: Growth inhibition of human HuH7 cells at 5 to 30 uM by real-time cell electronic sensing assay; type: functional, cell-based; settings: TDE = time-dependent effect
HepG2 [16] = test: Growth inhibition of human HepG2 cells at 5 to 30 uM by real-time cell electronic sensing assay; type: functional, cell-based; settings: TDE = time-dependent effect
Huh-7 [17] = test: Antiproliferative activity in human HuH7 cells assessed as inhibition of BrdU incorporation at cytotoxic IC50 to IC100 concentration after 3 to 6 days; type: functional, cell-based
Huh-7 [18] = test: Induction of p15INK4b protein expression in human HuH7 cells assessed as inhibition of cyclinD1/[…]-mediated Rb phosphorylation at cytotoxic IC50 to IC100 concentration after 6 days by Western blot analysis; type: functional, cell-based
Huh-7 [19] = test: Induction of p15INK4b protein expression in human HuH7 cells at cytotoxic IC50 to IC100 concentration by Western blot analysis; type: functional, cell-based; settings: TDE = time-dependent effect
Huh-7 [20] = test: Induction of p15INK4b protein expression in human HuH7 cells after 3 to 6 days by Western blot analysis; type: functional, cell-based
Mahlavu [21] = test: Growth inhibition of human Mahlavu cells at 5 to 30 uM by real-time cell electronic sensing assay; type: functional; settings: TDE = time-dependent effect
FOCUS [22] = test: Growth inhibition of human FOCUS cells at 5 to 30 uM by real-time cell electronic sensing assay; type: functional, cell-based; settings: TDE = time-dependent effect
Huh-7 [23] = test: Growth inhibition of human HuH7 cells measured every 30 mins by real-time cell electronic sensing assay; type: functional, cell-based
HepG2 [24] = test: Growth inhibition of human HepG2 cells measured every 30 mins by real-time cell electronic sensing assay; type: functional, cell-based
Mahlavu [25] = test: Growth inhibition of human Mahlavu cells measured every 30 mins by real-time cell electronic sensing assay; type: functional
FOCUS [26] = test: Growth inhibition of human FOCUS cells measured every 30 mins by real-time cell electronic sensing assay; type: functional, cell-based
Huh-7 [27] = test: Induction of senescence in human HuH7 cells assessed as increase in senescence associated beta-galactosidase activity at 25 ng/mL after 3 to 6 days by X-GAL based staining method; type: functional, cell-based
Huh-7 [28] = test: Antiproliferative activity in human HuH7 cells assessed as inhibition of BrdU incorporation at 25 ng/mL after 3 to 6 days; type: functional, cell-based
Huh-7 [29] = test: Inhibition of protein kinase in human HuH7 cells assessed as increase in ATP level at 5 uM after 72 hrs by Kinase-Glo assay; type: cell-based
[30] = Homo sapiens, Huh-7, 72 h, read-out: IC50
[31] = huh-7, TDE = time-dependent effect
[32] = Homo sapiens, HepG2, 72 h, read-out: IC50
[33] = hepg2, TDE = time-dependent effect
[34] = Homo sapiens, HCT-116, 72 h, read-out: IC50
[35] = hct-116, TDE = time-dependent effect
[36] = Homo sapiens, MCF7, 72 h, read-out: IC50
[37] = mcf7, TDE = time-dependent effect

With `OC[C@H]1O[C@@H](n2cnc3c(N4CCN(c5ccc(Cl)c(Cl)c5)CC4)ncnc32)[C@H](O)[C@@H]1O` the IC50 (Huh-7 [1]; [30]) was 7.1 µM, the IC50 (Huh-7 [1]; [31]) was “tde” and the IC50 (HepG2 [2]; [32]) was 6.1 µM. For the same molecule, the IC50 (HepG2 [2]; [33]) was “tde”, the IC50 (HCT-116; [34]) was 8.4 µM and the IC50 (HCT-116; [35]) was “tde”. The IC50 (MCF7; [36]) was 9.7 µM, the IC50 (MCF7; [37]) was “tde” and the IC50 [3] was 7 µM. For the same molecule, the IC50 [4] was 5.5 µM.
With `OC[C@H]1O[C@@H](n2cnc3c(N4CCN(C(c5ccccc5)c5ccccc5)CC4)ncnc32)[C@H](O)[C@@H]1O` the IC50 (Huh-7 [1]; [30]) was 44.4 µM, the IC50 (Huh-7 [1]; [31]) was “tde” and the IC50 (HepG2 [2]; [32]) was 63.5 µM. The IC50 (HepG2 [2]; [33]) was “tde”, the IC50 (HCT-116; [34]) was 48.5 µM and the IC50 (HCT-116; [35]) was “tde”. For the same molecule, the IC50 (MCF7; [36]) was 40.1 µM, the IC50 (MCF7; [37]) was “tde” and the IC50 [3] was 92.7 µM. For the same molecule, the IC50 [4] was greater than 100 µM.
For `OC[C@H]1O[C@@H](n2cnc3c(N4CCN(c5ccc(C(F)(F)F)cc5)CC4)ncnc32)[C@H](O)[C@@H]1O`, the IC50 (Huh-7 [1]; [30]) was 7.8 µM, the IC50 (Huh-7 [1]; [31]) was “tde” and the IC50 (HepG2 [2]; [32]) was 5.7 µM. For the same molecule, the IC50 (HepG2 [2]; [33]) was “tde”, the IC50 (HCT-116; [34]) was 6.7 µM and the IC50 (HCT-116; [35]) was “tde”. For the same molecule, the IC50 (MCF7; [36]) was 7.5 µM, the IC50 (MCF7; [37]) was “tde” and the inhibition (Huh-7 [5]) was “Dose-dependent effect”. For the same molecule, the Activity (Huh-7 [6]) was “inactive”, the Activity (HepG2 [7]) was “inactive” and the Activity (Mahlavu [8]) was “inactive”. For the same molecule, the Activity (FOCUS [9]) was “inactive”, the IC50 [3] was 9.2 µM and the IC50 [4] was 5.2 µM. The Activity (Huh-7 [10]) was “inactive”, the Activity (HepG2 [11]) was “inactive” and the Activity (Mahlavu [12]) was “inactive”. For the same molecule, the Activity (FOCUS [13]) was “inactive”, the Activity (Huh-7 [14]) was “Active” and the “growth inhibition (GI)” value (Huh-7 [15]) was “tde”. For the same molecule, the “growth inhibition (GI)” value (HepG2 [16]) was “tde”, the Activity (Huh-7 [17]) was “Active” and the Activity (Huh-7 [18]) was “Active”. For the same molecule, the Activity (Huh-7 [19]) was “tde”, the Activity (Huh-7 [20]) was “Dose-dependent effect” and the “growth inhibition (GI)” value (Mahlavu [21]) was “tde”. The “growth inhibition (GI)” value (FOCUS [22]) was “tde”, the “growth inhibition (GI)” value (Huh-7 [23]) was “Dose-dependent effect” and the “growth inhibition (GI)” value (HepG2 [24]) was “Dose-dependent effect”. The “growth inhibition (GI)” value (Mahlavu [25]) was “Dose-dependent effect” and the “growth inhibition (GI)” value (FOCUS [26]) was “Dose-dependent effect”.
With `OC[C@H]1O[C@@H](n2cnc3c(N4CCN(c5ccccc5)CC4)ncnc32)[C@H](O)[C@@H]1O` the IC50 (Huh-7 [1]; [30]) was greater than 100 µM, the IC50 (Huh-7 [1]; [31]) was “tde” and the IC50 (HepG2 [2]; [32]) was greater than 100 µM. The IC50 (HepG2 [2]; [33]) was “tde”, the IC50 (HCT-116; [34]) was greater than 100 µM and the IC50 (HCT-116; [35]) was “tde”. For the same molecule, the IC50 (MCF7; [36]) was greater than 100 µM, the IC50 (MCF7; [37]) was “tde” and the IC50 [3] was greater than 100 µM. It also gave an IC50 [4] greater than 100 µM.
With `OC[C@H]1O[C@@H](n2cnc3c(N4CCN(c5ccc(F)cc5)CC4)ncnc32)[C@H](O)[C@@H]1O` the IC50 (Huh-7 [1]; [30]) was 49.7 µM, the IC50 (Huh-7 [1]; [31]) was “tde” and the IC50 (HepG2 [2]; [32]) was greater than 100 µM. For the same molecule, the IC50 (HepG2 [2]; [33]) was “tde”, the IC50 (HCT-116; [34]) was greater than 100 µM and the IC50 (HCT-116; [35]) was “tde”. For the same molecule, the IC50 (MCF7; [36]) was greater than 100 µM, the IC50 (MCF7; [37]) was “tde” and the IC50 [3] was greater than 100 µM. For the same molecule, the IC50 [4] was greater than 100 µM.
For `COc1cccc2c1C(=O)c1c(O)c3c(c(O)c1C2=O)C[C@@](O)(C(=O)CO)C[C@@H]3O[C@H]1C[C@H](N)[C@H](O)[C@H](C)O1`, the Activity (Huh-7 [27]) was “Active” and the Activity (Huh-7 [28]) was “Active”.
Work on `O=c1[nH]cc(F)c(=O)[nH]1` [FLUOROURACIL] yielded an IC50 (Huh-7 [1]; [30]) of 30.7 µM, an IC50 (HepG2 [2]; [32]) of 5 µM and an IC50 (HCT-116; [34]) of 6 µM. It also gave an IC50 (MCF7; [36]) of 3.5 µM, an IC50 [3] of 10 µM and an IC50 [4] of 7.6 µM.
With `CC[C@@]1(O)C(=O)OCc2c1cc1n(c2=O)Cc2cc3ccccc3nc2-1` [CAMPTOTHECIN] the IC50 (Huh-7 [1]; [30]) was less than 0.1 µM, the IC50 (HepG2 [2]; [32]) was less than 0.1 µM and the IC50 (HCT-116; [34]) was less than 0.1 µM. It also gave an IC50 (MCF7; [36]) of less than 0.1 µM, an IC50 [3] of less than 0.1 µM and an IC50 [4] of less than 0.1 µM.
In the case of `CSC[C@H]1O[C@@H](n2cnc3c(N)ncnc32)[C@H](O)[C@@H]1O`, the inhibition (Huh-7 [29]) is reported as “Active”.
